Where two headings read alike, the source gives them in different places.
Columns and labels:
hSTING(H232) = target: T1, hSTING(H232) (Homo sapiens, UniProt Q86WV6); test: Luciferase reporter assay in HEK293T-hSTING-Luciferase cells, H232 polymorph; assay type: cell-based; details: 20 hr stimulation, read-out: H232 activity (EC50 range)
T1 construct: host or cells: HEK293T
Summary of the method: (§1)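 HEK293T clones stably expressed the given human STING variant plus luciferase under an ISRE/ISG54 IRF-inducible promoter. 5×10^5 cells were stimulated with compound for 20 hr, and secreted luciferase in the supernatant was measured by Quanti-Luc luminescence.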

hSTING(HAQ) = target: T2, hSTING(HAQ) (Homo sapiens, UniProt Q86WV6, G230A/H232R/R293Q/R71H); test: Luciferase reporter assay in HEK293T-hSTING-Luciferase cells, HAQ polymorph; assay type: cell-based; details: 20 hr stimulation, read-out: HAQ activity (EC50 range)
T2 construct: host or cells: HEK293T
T2 sequence (Q86WV6 whole entry R71H/G230A/H232R/R293Q): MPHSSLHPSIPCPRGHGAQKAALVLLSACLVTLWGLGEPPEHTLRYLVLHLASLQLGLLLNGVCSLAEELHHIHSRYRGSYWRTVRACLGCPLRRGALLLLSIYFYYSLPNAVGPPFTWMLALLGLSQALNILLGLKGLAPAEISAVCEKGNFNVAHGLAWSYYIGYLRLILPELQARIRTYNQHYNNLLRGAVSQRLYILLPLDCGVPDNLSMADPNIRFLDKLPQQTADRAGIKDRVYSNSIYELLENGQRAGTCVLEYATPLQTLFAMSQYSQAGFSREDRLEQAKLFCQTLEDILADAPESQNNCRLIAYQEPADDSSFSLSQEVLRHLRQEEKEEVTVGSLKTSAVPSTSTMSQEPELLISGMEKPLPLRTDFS
Summary of the method: as §1

IRF pathway = test: Reporter gene expression assay in THP1-Dual cells, IRF axis (secreted Lucia luciferase); assay type: cell-based, human; details: read-out: THP-IRF activity (EC50 range)
Summary of the method: (§2)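 THP-1-derived cells carrying inducible NF-κB-SEAP and IRF-Lucia reporters, seeded at 5×10^5 and stimulated with compounds. After […], supernatant SEAP read with QUANTI-Blue and Lucia luciferase with QUANTI-Luc.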

WT/R232 STING protein = target: T3, WT/R232 STING protein (Homo sapiens, UniProt Q86WV6, H232R); test: Luciferase reporter assay in HEK293T-hSTING-Luciferase cells, WT/R232; assay type: cell-based; details: 20 hr stimulation, read-out: R232 Activity (EC50 range)
T3 construct: host or cells: HEK293T
T3 sequence (Q86WV6 whole entry H232R): as the sequence (Q86WV6 whole entry R71H/G230A/H232R/R293Q) above, with H71R, A230G, Q293R counted along it
Summary of the method: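 […], read by luminescence from supernatant after 20 h compound stimulation. Cells: clonally selected HEK293T (5×10^5/well) stably carrying WT/R232 human STING and a luciferase reporter under five tandem ISREs fused to an ISG54 minimal promoter.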

NF-κB pathway = test: Reporter gene expression assay in THP1-Dual cells, NFkB axis (secreted SEAP); assay type: cell-based, human; details: read-out: THP-NFKB activity (EC50 range)
Summary of the method: as §2

T1 sequence (Q86WV6 whole entry): as the sequence (Q86WV6 whole entry R71H/G230A/H232R/R293Q) above, with H71R, A230G, R232H, Q293R counted along it

Row | Compound | EC50 (hSTING(H232)) [µM] | EC50 (hSTING(HAQ)) [µM] | EC50 (IRF pathway) [µM] | EC50 (WT/R232 STING protein) [µM] | EC50 (NF-κB pathway) [µM] | EC50 (IRF pathway; Homo sapiens, THP1-Dual) [µM] | EC50 (NF-κB pathway; Homo sapiens, THP1-Dual) [µM]
1 | CC1Sc2ccc(C(=O)NCc3ccc(F)cc3F)nc2N(Cc2c(F)cccc2Cl)C1=O (centres unmarked) [Example 187, 4-(2-chloro-6-fluorobenzyl)-N-(2,4-difluorobenzyl)-2-methyl-3-oxo-3,4-dihydro-2H-pyrido[3,2-b-1,4]thiazine-6-carboxamide] | > 10 | > 10 | – | 1 to 10 | – | > 10 | > 10
2 | CC1Oc2ccc(C(=O)NCc3c(F)cc(F)cc3F)cc2N(Cc2cc(F)cc(F)c2)C1=O (centres unmarked) [Example 232, 2-Methyl-4-(3,5-difluorobenzvyl)-3-oxo-N-(2,4,6-trifluorobenzyl)-3,4-dihydro-2H-1,4-benzoxazine-6-carboxamide] | 1 to 10 | 1 to 10 | – | < 1 | – | > 10 | > 10
3 | Cc1cc(CN2C(=O)C(C)Sc3ccc(C(=O)NCc4c(F)cc(F)cc4F)cc32)on1 (centres unmarked) [Example 158, 2-methyl-4-((3-methylisoxazol-5-yl)methyl)-3-oxo-N-(2,4,6-trifluorobenzyl)-3,4-dihydro-2H-benzo[b][1,4] thiazine-6-carboxamide] | 1 to 10 | 1 to 10 | – | < 1 | – | 1 to 10 | 1 to 10

Second part, the molecule after the results:

Row | EC50 (hSTING(H232)) [µM] | EC50 (hSTING(HAQ)) [µM] | EC50 (IRF pathway) [µM] | EC50 (WT/R232 STING protein) [µM] | EC50 (NF-κB pathway) [µM] | EC50 (IRF pathway; Homo sapiens, THP1-Dual) [µM] | EC50 (NF-κB pathway; Homo sapiens, THP1-Dual) [µM] | Compound
4 | < 1 | < 1 | 1 to 10 | < 1 | 1 to 10 | – | – | CC1Sc2ncc(C(=O)NCc3cc4ccccc4o3)cc2N(Cc2cc(F)cc(F)c2)C1=O (centres unmarked) [Example 194, N-(benzofuran-2-ylmethyl)-1-(3,5-difluorobenzyl)-3-methyl-2-oxo-2,3-dihydro-1H-pyrido[2,3-b][1,4]thiazine-7-carboxamide]
5 | 1 to 10 | 1 to 10 | – | 1 to 10 | – | > 10 | > 10 | O=C(NCc1ccc(F)cc1)c1ccc2c(c1)N(Cc1c(F)cccc1Cl)C(=O)CS2 [Example 127, 4-(2-chloro-6-fluorobenzyl)-N-(4-fluorobenzyl)-3-oxo-3,4-dihydro-2H-benzo[b-1,4]thiazine-6-carboxamide]
6 | 1 to 10 | 1 to 10 | – | < 1 | – | 1 to 10 | 1 to 10 | Cc1cc(CN2C(=O)C(C)Sc3ccc(C(=O)NCc4c(F)cc(F)cc4F)cc32)no1 (centres unmarked) [Example 159, 2-methyl-4-((5-methylisoxazol-3-yl)methyl)-3-oxo-N-(2,4,6-trifluorobenzyl)-3,4-dihydro-2H-benzo[b][1,4] thiazine-6-carboxamide]
7 | < 1 | < 1 | – | < 1 | – | 1 to 10 | 1 to 10 | CC1Sc2ccc(C(=O)NCc3c(F)cc(F)cc3F)cc2N(Cc2c(F)cccc2Cl)C1=O (centres unmarked) [Example 138, 4-(2-chloro-6-fluorobenzyl)-2-methyl-3-oxo-N-(2,4,6-trifluorobenzyl)-3,4-dihydro-2H-benzo[b-1,4]thiazine-6-carboxamide]

— patent US20200138827A1, “SMALL MOLECULE MODULATORS OF HUMAN STING” (Curadev Pharma Limited, priority 2017, published 2020)
